The test deals with SK-BR-3 tumor cells. As to the kind of experiment: In vitro proliferation inhibitory activity of compounds of Formula (GH) on SK-BR-3 tumor cells (CCK8). Particulars: Homo sapiens, SK-BR-3, 72 h, 3 days of culture, read-out: IC50 for inhibiting proliferation of SK-BR-3 cells in vitro. The format is cell-based. On the procedure:
The objective of this experiment is to detect the in vitro killing activity of the compound of Formula (GH) of the present disclosure on SK-BR-3 tumor cells (human breast cancer cells, Wuhan Procell, Catalog No. CL-0211). The cells were treated with different concentrations of the compound in vitro. After 3 days of culture, the number of viable cells was detected using CCK8 (Cell Counting Kit-8, Catalog No. TS547) reagents, and the in vitro activity of the test compound was evaluated according to the IC50 value.
Taking the test method of in vitro killing activity on SK-BR-3 cells as an example, the following test was performed. […] After the cells were completely digested, 10 mL of cell culture medium containing 2% FBS was added to wash out the digested cells, centrifugation was performed at 300 g for 5 min, the supernatant was discarded, and then 10 to 20 mL of cell culture medium containing 2% FBS was added to resuspend the cells to prepare a single cell suspension. • (3) Cell plating: The SK-BR-3 single cell suspension was mixed well, the viable cell density was adjusted to 6×10^4 cells/mL with the cell culture medium containing 2% FBS, the cell suspension after density adjustment was mixed well, and added to a 96-well cell culture plate at 100 μL/well. Only 200 μL of PBS was added to the peripheral wells of the 96-well plate. The culture plate was incubated in an incubator for 24 hours (37° C., 5% CO2). • (4) Compound preparation: The compound was dissolved in DMSO (dimethyl sulfoxide, SIGMA) to prepare a 2 mM stock solution.
The starting concentrations of small molecule compounds and Dxd were both 600 nM, and the preparation method was as follows.
Then, 315 μL of different samples to be tested were added to the first column of a 96-well U-bottomed drug distribution plate, and the sample concentration was 1200 nM; 210 μL of the cell culture medium containing 2% FBS was added to each well of the second to tenth columns. 105 μL of the sample was taken from the first column and added to the 210 μL cell culture medium in the second column and mixed well, and 105 μL was taken and added to the third column, and so on to the tenth column. • (5) Sample loading operation: 100 μL of the sample to be tested of different concentrations was added to the culture plate, and two replicate wells were set for each sample. The culture plate was incubated in an incubator for 3 days (37° C., 5% CO2). • (6) Color development operation: The 96-well cell culture plate was taken out, the cell culture supernatant was removed by tapping, 100 μL of the RPMI 1640 basal medium (without FBS) containing 10% CCK8 was added, and then it was incubated in an incubator for about 1.5 hours (37° C., 5% CO2). • (7) Plate reading operation: The 96-well cell culture plate was taken out, placed in an ELISA reader (MD SpectraMax i3X), and A450 was determined by the ELISA reader. • (8) Data analysis: Microsoft Excel and Graphpad Prism 5 were used to process and analyze the data.
For `Cc1c(F)cc2nc3c(c4c2c1CC[C@H]4NC(=O)CO)Cn1c-3cc2c(c1=O)COC(=O)[C@]2(O)CC1CC1` [Compound 1-A, N-((1R,9S)-9-(cyclopropylmethyl)-5-fluoro-9-hydroxy-4-methyl-10,13-dioxo-2,3,9,10,13,15-hexahydro-1H,12H-benzo[de]pyrano[3′,4′:6,7]indolizino[1,2-b]quinolin-1-yl)-2-hydroxyacetamide], the IC50 turned out to be 0.93 nM.

On to `Cc1c(F)cc2nc3c(c4c2c1CC[C@H]4NC(=O)[C@H](C)O)Cn1c-3cc2c(c1=O)COC(=O)[C@]2(O)CC1CC1` [Compound 2-B, (S)-N-((1R,9S)-9-(Cyclopropylmethyl)-5-fluoro-9-hydroxy-4-methyl-10,13-dioxo-2,3,9,10,13,15-hexahydro-1H,12H-benzo[de]pyrano[3′,4′:6,7]indolizino[1,2-b]quinolin-1-yl)-2-hydroxypropanamide], for which the IC50 worked out at 12 nM.

`Cc1c(F)cc2nc3c(c4c2c1CC[C@H]4NC(=O)[C@@H](C)O)Cn1c-3cc2c(c1=O)COC(=O)[C@]2(O)CC1CC1` [Compound 3-B, (R)-N-((1R,9S)-9-(cyclopropylmethyl)-5-fluoro-9-hydroxy-4-methyl-10,13-dioxo-2,3,9,10,13,15-hexahydro-1H,12H-benzo[de]pyrano[3′,4′:6,7]indolizino[1,2-b]quinolin-1-yl)-2-hydroxypropanamide]: the IC50 came to 2.36 nM.

Regarding `Cc1c(F)cc2nc3c(c4c2c1CC[C@H]4NC(=O)[C@@H](O)C1CC1)Cn1c-3cc2c(c1=O)COC(=O)[C@]2(O)CC1CC1` [Compound 4-B, (S)-2-cyclopropyl-N-((1R,9S)-9-(cyclopropylmethyl)-5-fluoro-9-hydroxy-4-methyl-10,13-dioxo-2,3,9,10,13,15-hexahydro-1H,12H-benzo[de]pyrano[3′,4′:6,7]indolizino[1,2-b]quinolin-1-yl)-2-hydroxyacetamide], the IC50 was found to be 5.01 nM.

`Cc1c(F)cc2nc3c(c4c2c1CC[C@@H]4NC(=O)[C@H](O)C1CC1)Cn1c-3cc2c(c1=O)COC(=O)[C@]2(O)CC1CC1` [Compound 5-A, (R)-2-Cyclopropyl-N-((1S,9S)-9-(cyclopropylmethyl)-5-fluoro-9-hydroxy-4-methyl-10,13-dioxo-2,3,9,10,13,15-hexahydro-1H,12H-benzo[de]pyrano[3′,4′:6,7]indolizino[1,2-b]quinolin-1-yl)-2-hydroxyacetamide]: the IC50 worked out at 9.27 nM.

In the case of `CC[C@@]1(O)C(=O)OCc2c1cc1n(c2=O)Cc2c-1nc1cc(F)c3c(c1c2CNC(=O)CO)CCC3` [Compound 24, (S)-N-((8-ethyl-4-fluoro-8-hydroxy-9,12-dioxo-2,3,8,9,12,14-hexahydro-1H,11H-cyclopenta[f]pyrano[3′,4′:6,7]indolizino[1,2-b]quinolin-15-yl)methyl)-2-hydroxyacetamide], the IC50 stood at 5.79 nM.

As for `CC[C@@]1(O)C(=O)OCc2c1cc1n(c2=O)Cc2c-1nc1cc(F)c3c(c1c2CNC(=O)[C@@H](C)O)CCC3` [Compound 26, (R)-N-(((S)-8-Ethyl-4-fluoro-8-hydroxy-9,12-dioxo-2,3,8,9,12,14-hexahydro-1H,11H-cyclopenta[f]pyrano[3′,4′:6,7]indolizino[1,2-b]quinolin-15-yl)methyl)-2-hydroxypropanamide], the IC50 came out at 8.39 nM.

As to `CC[C@@]1(O)C(=O)OCc2c1cc1n(c2=O)Cc2c-1nc1cc(F)c3c(c1c2CNC(=O)[C@@H](O)C1CC1)CCC3` [Compound 27, (S)-2-Cyclopropyl-N-(((S)-8-ethyl-4-fluoro-8-hydroxy-9,12-dioxo-2,3,8,9,12,14-hexahydro-1H,11H-cyclopenta[f]pyrano[3′,4′:6,7]indolizino[1,2-b]quinolin-15-yl)methyl)-2-hydroxyacetamide], the IC50 was found to be 13.9 nM.

Consider `CC[C@@]1(O)C(=O)OCc2c1cc1n(c2=O)Cc2c-1nc1cc(F)c3c(c1c2CNC(=O)[C@H](O)C1CC1)CCC3` [Compound 28, (R)-2-Cyclopropyl-N-(((S)-8-ethyl-4-fluoro-8-hydroxy-9,12-dioxo-2,3,8,9,12,14-hexahydro-1H,11H-cyclopenta[f]pyrano[3′,4′:6,7]indolizino[1,2-b]quinolin-15-yl)methyl)-2-hydroxyacetamide], for which the IC50 worked out at 15.1 nM.

The values above are taken from patent US20260184721A2, “FUSED RING COMPOUND, CONJUGATE THEREOF AND USE THEREOF” (Keymed Biosciences (Chengdu) Co., Ltd., priority 2022, published 2026).
